Laboratory results: US11661431B2, “Thienopyrrole compounds” (Gilead Sciences, Inc., priority 2021, dated 2023)
pEC50: −log10 of the molar value.

Tests used:
TLR8 = TLR8 (Homo sapiens (Human), UniProt Q9NR97); assay: TLR8 human peripheral blood mononuclear cell (PBMC) cell-based assay (Compound A as agonist; TNFα and IL12p40 readout); details: human PBMCs, TLR8 agonist Compound A at 800 nM, 6 hours, antagonist potency; read-out: TLR-8 EC50
Method: After counting, the cell density was adjusted to 2 million cells/ml and incubated for 1 hour at 37° C., 5% CO2 for recovery. Following the recovery, the cells were plated by adding 50 μl per well (100,000 cells) to 384-well cell culture plates (Greiner) containing 250 nl of test antagonists in 100% DMSO per well, in a 10 points dose response in quadruplicates. PBMCs were incubated in the presence of antagonists for one hour at 37° C., 5% CO2 before being stimulated with TLR8 agonist. […] PBMCs were incubated in the presence of antagonist and the TLR8 agonist for an additional 6 hours at 37° C., 5% CO2. At the end of the incubation, the cell culture plates were centrifuged at 500 g for 5 min, and the cell culture supernatant was collected. The level of cytokines (TNFα and IL12p40) in the supernatant was measured by electrochemiluminescence immunoassays (Mesoscale Discovery) following manufacturer's recommended protocols.

TLR7 = TLR7 (Homo sapiens (Human), UniProt Q9NYK1); assay: TLR7 human peripheral blood mononuclear cell (PBMC) cell-based assay (GS-986 as agonist; IL-6 and IFNα readout); details: human PBMCs, TLR7 agonist GS-986 at 400 nM, 6 hours, antagonist potency; read-out: TLR-7 EC50
Method: Human peripheral blood mononuclear cells (PBMCs) consist of lymphocytes, monocytes and dendritic cells that express TLR7, TLR8 and TLR9. These cells respond to TLR7, TLR8 and TLR9 ligand stimulation and produce cytokines and chemokines in vitro and in vivo. Human PBMCs are therefore suitable to be used in a cell-based assay to assess the in vitro potency of a TLR 7, 8, and/or 9 antagonist.
After counting, the cell density was adjusted to 2 million cells/ml and incubated for 1 hour at 37° C., 5% CO2 for recovery. Following the recovery, the cells were plated by adding 50 μl per well (100,000 cells) to 384-well cell culture plates (Greiner) containing 250 nl of test antagonists in 100% DMSO per well, in a 10 points dose response in quadruplicates. PBMCs were incubated in the presence of test antagonists for one hour at 37° C., 5% CO2 before being stimulated with a TLR7 or TLR9agonist. […] PBMCs were incubated in the presence of the test antagonist and the TLR7 (or TLR9) agonist for an additional 6 hours at 37° C., 5% CO2. At the end of the incubation, the cell culture plates were centrifuged at 500 g for 5 min, and the cell culture supernatant was collected. The level of cytokines (IL-6 and IFNα) in the supernatant was measured by electrochemiluminescence immunoassays (Mesoscale Discovery) following manufacturer's recommended protocols.

TLR8, sequence (Q9NR97 27-1041): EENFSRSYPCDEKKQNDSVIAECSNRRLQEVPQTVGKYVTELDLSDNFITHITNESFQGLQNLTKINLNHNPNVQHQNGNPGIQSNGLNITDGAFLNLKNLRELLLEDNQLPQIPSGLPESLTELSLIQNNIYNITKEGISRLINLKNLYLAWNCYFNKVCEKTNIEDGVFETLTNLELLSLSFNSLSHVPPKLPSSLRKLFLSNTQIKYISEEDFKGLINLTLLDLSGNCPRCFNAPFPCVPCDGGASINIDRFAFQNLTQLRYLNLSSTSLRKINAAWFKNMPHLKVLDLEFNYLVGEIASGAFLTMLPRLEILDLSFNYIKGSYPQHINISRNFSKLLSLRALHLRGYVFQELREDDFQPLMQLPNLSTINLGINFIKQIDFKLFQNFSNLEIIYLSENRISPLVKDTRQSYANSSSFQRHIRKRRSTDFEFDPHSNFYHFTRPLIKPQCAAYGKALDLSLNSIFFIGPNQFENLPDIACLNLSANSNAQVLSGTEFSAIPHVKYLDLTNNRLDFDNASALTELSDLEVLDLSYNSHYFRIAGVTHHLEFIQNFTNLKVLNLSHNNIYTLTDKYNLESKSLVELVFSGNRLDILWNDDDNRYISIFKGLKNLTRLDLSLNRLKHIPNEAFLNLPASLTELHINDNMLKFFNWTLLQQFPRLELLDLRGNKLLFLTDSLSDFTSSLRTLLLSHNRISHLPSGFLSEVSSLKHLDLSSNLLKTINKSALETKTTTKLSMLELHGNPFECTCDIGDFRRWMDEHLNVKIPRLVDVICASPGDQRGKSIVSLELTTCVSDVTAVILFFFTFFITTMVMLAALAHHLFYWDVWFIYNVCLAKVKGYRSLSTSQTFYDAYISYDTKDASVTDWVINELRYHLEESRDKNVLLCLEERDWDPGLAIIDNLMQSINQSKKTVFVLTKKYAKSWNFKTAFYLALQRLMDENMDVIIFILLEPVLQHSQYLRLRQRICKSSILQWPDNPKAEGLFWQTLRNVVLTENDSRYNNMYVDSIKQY
TLR7, sequence (Q9NYK1 27-1049): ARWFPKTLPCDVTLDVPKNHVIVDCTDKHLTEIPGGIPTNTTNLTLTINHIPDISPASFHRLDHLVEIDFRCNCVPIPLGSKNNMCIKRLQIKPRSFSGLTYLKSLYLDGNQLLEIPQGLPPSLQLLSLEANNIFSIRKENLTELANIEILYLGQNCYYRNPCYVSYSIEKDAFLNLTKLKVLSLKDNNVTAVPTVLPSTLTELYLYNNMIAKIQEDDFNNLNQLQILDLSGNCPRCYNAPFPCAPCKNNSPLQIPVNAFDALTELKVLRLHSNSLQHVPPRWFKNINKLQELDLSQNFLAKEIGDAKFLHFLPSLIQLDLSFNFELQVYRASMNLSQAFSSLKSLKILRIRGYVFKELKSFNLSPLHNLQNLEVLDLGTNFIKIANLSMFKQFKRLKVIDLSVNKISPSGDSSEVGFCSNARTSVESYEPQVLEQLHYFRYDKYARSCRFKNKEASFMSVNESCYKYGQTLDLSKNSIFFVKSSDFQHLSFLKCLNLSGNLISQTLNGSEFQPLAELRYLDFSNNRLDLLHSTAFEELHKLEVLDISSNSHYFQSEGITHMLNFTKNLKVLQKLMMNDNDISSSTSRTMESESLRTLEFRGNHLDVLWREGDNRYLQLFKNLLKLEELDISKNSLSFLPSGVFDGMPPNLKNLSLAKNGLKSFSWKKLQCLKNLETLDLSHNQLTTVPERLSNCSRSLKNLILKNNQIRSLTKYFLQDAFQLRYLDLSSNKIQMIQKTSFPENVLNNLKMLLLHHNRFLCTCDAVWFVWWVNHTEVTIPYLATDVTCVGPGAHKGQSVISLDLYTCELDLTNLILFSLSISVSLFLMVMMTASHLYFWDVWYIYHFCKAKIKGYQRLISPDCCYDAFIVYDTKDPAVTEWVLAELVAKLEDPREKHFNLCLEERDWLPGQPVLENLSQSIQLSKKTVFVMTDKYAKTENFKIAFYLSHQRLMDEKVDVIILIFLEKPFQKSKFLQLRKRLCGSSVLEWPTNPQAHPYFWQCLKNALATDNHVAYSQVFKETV

Row | SMILES | pEC50 (TLR8) | pEC50 (TLR7)
1 | Cc1cc(-c2[nH]c3sc(S(=O)(=O)N4CCNCC4)cc3c2C(C)C)cn2ncnc12 [Example 6, 4-Isopropyl-5-(8-methyl-[1,2,4]triazolo[1,5-a]pyridin-6-yl)-2-(piperazin-1-ylsulfonyl)-6H-thieno[2,3-b]pyrrole] | 7.07 | 7.67
2 | Cc1c(C(=O)N(C)C2CCN(CCO)CC2)sc2[nH]c(-c3cc(C)c4ncnn4c3)c(C(C)C)c12 [Example 7, N-(1-(2-hydroxyethyl)piperidin-4-yl)-4-isopropyl-N,3-dimethyl-5-(8-methyl-[1,2,4]triazolo[1,5-a]pyridin-6-yl)-6H-thieno[2,3-b]pyrrole-2-carboxamide] | 8.43 | 9.85
3 | Cc1c(C2CCNCC2)sc2[nH]c(-c3cc(C)c4ncnn4c3)c(C(C)C)c12 [Example 8, 4-Isopropyl-3-methyl-5-(8-methyl-[1,2,4]triazolo[1,5-a]pyridin-6-yl)-2-(piperidin-4-yl)-6H-thieno[2,3-b]pyrrole] | 8.31 | 10.10
4 | Cc1c(C2CCN(CC(N)=O)CC2)sc2[nH]c(-c3cc(C)c4ncnn4c3)c(C(C)C)c12 [Example 9, 2-(4-(4-isopropyl-3-methyl-5-(8-methyl-[1,2,4]triazolo[1,5-a]pyridin-6-yl)-6H-thieno[2,3-b]pyrrol-2-yl)piperidin-1-yl)acetamide] | 7.77 | 9.19
5 | Cc1c(C2CCN(C(=O)CN(C)C)CC2)sc2[nH]c(-c3cc(C)c4ncnn4c3)c(C(C)C)c12 [Example 10, 2-(dimethylamino)-1-(4-(4-isopropyl-3-methyl-5-(8-methyl-[1,2,4]triazolo[1,5-a]pyridin-6-yl)-6H-thieno[2,3-b]pyrrol-2-yl)piperidin-1-yl)ethan-1-one] | 8.03 | 9.74
6 | Cc1c(C2CCN(CC3(C)COC3)CC2)sc2[nH]c(-c3cc(C)c4ncnn4c3)c(C(C)C)c12 [Example 11] | 7.84 | 8.61
7 | Cc1c(C2CCN(CCO)CC2)sc2[nH]c(-c3cc(C)c4ncnn4c3)c(C(C)C)c12 [Example 13, 2-(4-(4-isopropyl-3-methyl-5-(8-methyl-[1,2,4]triazolo[1,5-a]pyridin-6-yl)-6H-thieno[2,3-b]pyrrol-2-yl)piperidin-1-yl)ethan-1-ol] | 8.15 | 8.90
8 | Cc1c(C2CCN(C(=O)[C@@H]3CCCN3)CC2)sc2[nH]c(-c3cc(C)c4ncnn4c3)c(C(C)C)c12 [Example 14] | 7.86 | 9.68
9 | Cc1c(C2CCN(C(=O)[C@H]3CCCN3)CC2)sc2[nH]c(-c3cc(C)c4ncnn4c3)c(C(C)C)c12 [Example 15] | 7.87 | 9.92

The remaining lines, values ahead:

Row | pEC50 (TLR8) | pEC50 (TLR7) | SMILES
10 | 7.34 | 8.79 | Cc1c(C2CCN(C(=O)C3CNC3)CC2)sc2[nH]c(-c3cc(C)c4ncnn4c3)c(C(C)C)c12 [Example 16]
11 | 7.96 | 10.30 | Cc1c(C2CCN(C(=O)[C@H]3CCCN3C)CC2)sc2[nH]c(-c3cc(C)c4ncnn4c3)c(C(C)C)c12 [Example 18]
12 | 8.11 | 9.37 | Cc1c(C2CCN(C(=O)[C@@H]3CCCN3C)CC2)sc2[nH]c(-c3cc(C)c4ncnn4c3)c(C(C)C)c12 [Example 19]
13 | 7.92 | 9.55 | Cc1c(-c2ccc(N3CCNCC3)nc2)sc2[nH]c(-c3cc(C)c4ncnn4c3)c(C(C)C)c12 [Example 20, 4-isopropyl-3-methyl-5-(8-methyl-[1,2,4]triazolo[1,5-a]pyridin-6-yl)-2-(6-(piperazin-1-yl)pyridin-3-yl)-6H-thieno[2,3-b]pyrrole]
14 | 8.90 | 8.97 | Cc1c(-c2cnc3c(c2)CNCC3)sc2[nH]c(-c3cc(C)c4ncnn4c3)c(C(C)C)c12 [Example 21]
15 | 7.58 | 8.90 | Cc1c(-c2ccc3[nH]c([C@H]4N[C@@H]5CC[C@H]4C5)nc3c2)sc2[nH]c(-c3cc(C)c4ncnn4c3)c(C(C)C)c12 [Example 22]
16 | 7.79 | 9.25 | Cc1c(-c2ccc(N3CCNCC3)cc2)sc2[nH]c(-c3cc(C)c4ncnn4c3)c(C(C)C)c12 [Example 23]
